Test results as given in patent EP0406628A1, “Monoclonal antibody against endothelin, hybridoma capable of producing the same and radioimmunoassay for endothelin by using the same” (SHIONOGI & CO., LTD., priority 1989, dated 1991).
Bridge positions count the residues as written; N and C are the ends. Ends that are not written are not given here.

System: isolated rat aortic strips
Assay: Neutralization experiment: contractile response of isolated rat aortic strips to ET-1
Details: synthetic ET-1 alone
Protocol: Contractile responses of rat aortic strips were performed as previously reported (Toda, S., Nakajima, S., Miyazaki, M., Ueda, M.: Vasodilation induced by pinacidil in dogs _ comparison with hydralizine and nifedipine. J. Cardiovasc. Pharmacol. 1985;7:1118-1126). Aortic strips were incubated in an organ bath perfused at 37°C with balanced salt solution containing 139.7 mEq Na⁺, 5.4 mEq K⁺, 2.2 mEq Ca²⁺, 1.0 mEq Mg²⁺, 131.5 mEq Cl⁻ and 20 mEq HCO₃⁻. Purified monoclonal antibody (0.05 µg/ml - 5 µg/ml) was added 3 min before the ET-1 administration.

ET-1: endothelin-1, purchased from Peptide Institute Inc.; original form isolated from culture medium of porcine aortic endothelial cells (CSCSSLMDKECVYFCHLDIIW; disulfide 1-15, 3-11; ends not checked; UniProt P05305 53-73, looked up)
vasoconstriction: induced a vasoconstriction in isolated rat aortic strips in a dose-dependent manner
